Consider 1 compound from ChEMBL document CHEMBL3872281, “A one-pot laccase-catalysed synthesis of coumestan derivatives and their anticancer activity” (Bioorg Med Chem, 2017).

The target of assay [1] is T1, Arachidonate 5-lipoxygenase (Sus scrofa, UniProt K7GQZ4).
T1 sequence (K7GQZ4 whole entry): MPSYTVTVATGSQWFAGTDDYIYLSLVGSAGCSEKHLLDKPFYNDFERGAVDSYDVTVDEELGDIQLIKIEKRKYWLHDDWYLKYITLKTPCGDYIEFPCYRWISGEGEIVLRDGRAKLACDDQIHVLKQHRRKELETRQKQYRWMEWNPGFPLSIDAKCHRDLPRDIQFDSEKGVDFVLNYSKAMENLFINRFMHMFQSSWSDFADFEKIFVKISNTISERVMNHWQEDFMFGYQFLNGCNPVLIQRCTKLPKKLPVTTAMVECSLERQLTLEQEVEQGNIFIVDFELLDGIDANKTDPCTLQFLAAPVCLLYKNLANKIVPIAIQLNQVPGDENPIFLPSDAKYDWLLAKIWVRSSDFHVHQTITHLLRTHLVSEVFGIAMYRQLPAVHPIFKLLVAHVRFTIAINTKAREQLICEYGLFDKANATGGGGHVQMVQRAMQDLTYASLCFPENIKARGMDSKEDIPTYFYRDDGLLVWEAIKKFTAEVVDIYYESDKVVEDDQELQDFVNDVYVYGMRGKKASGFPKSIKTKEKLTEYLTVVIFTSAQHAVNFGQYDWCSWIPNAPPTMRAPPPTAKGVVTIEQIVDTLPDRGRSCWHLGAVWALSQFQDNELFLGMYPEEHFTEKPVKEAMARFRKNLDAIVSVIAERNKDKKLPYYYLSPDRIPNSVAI
As to the kind of experiment: Inhibition of 5-lipoxygenase in pig leukocytes using arachidonic acid as substrate. In kind it is cell-based.

The target of assay [2] is T2, Arachidonate 5-lipoxygenase (Sus scrofa) (UniProt K7GQZ4).
T2 sequence (whole entry): T1 sequence (K7GQZ4 whole entry)
The assay can be described thus: Potency index, ratio of coumestrol IC50 to compound IC50 for 5-lipoxygenase in pig leukocytes. In kind it is cell-based.

`COc1cc(O)c2c(c1)oc(=O)c1c3cc(O)c(O)cc3oc21` [WEDELOLACTONE]: in assay [1], the IC50 (in general, the concentration that gives 50% inhibition) was 2500 nM. For the same compound, the Ratio IC50 in assay [2] is 40.
